One series deals with T1, Cathepsin K (Homo sapiens, UniProt P43235).
T1 sequence (P43235 whole entry): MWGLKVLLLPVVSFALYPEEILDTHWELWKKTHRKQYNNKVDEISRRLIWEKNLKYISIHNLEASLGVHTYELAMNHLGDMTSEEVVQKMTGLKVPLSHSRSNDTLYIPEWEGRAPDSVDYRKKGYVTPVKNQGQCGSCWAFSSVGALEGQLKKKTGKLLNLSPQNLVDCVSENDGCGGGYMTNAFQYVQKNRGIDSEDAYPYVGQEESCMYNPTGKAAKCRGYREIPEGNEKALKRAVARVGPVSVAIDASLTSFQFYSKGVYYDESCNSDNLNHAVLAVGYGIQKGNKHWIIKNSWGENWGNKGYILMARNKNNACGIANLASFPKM
Kind of series: Inhibition of recombinant human cathepsin K by fluorescence assay.

A short description of series [1]: Clearance in Han Wistar rat. Type of series: ADME, organism-based. The following applies: in vivo.
Series [2] can be described thus: Solubility in fasted state-simulated intestinal fluid at pH 6.8. It is filed as physicochemical.
The nature of series [3]: Permeability in MDCK cell line. Type of series: ADME, cell-based, Canis lupus familiaris. The following applies: dog.
Series [4] in a line: Volume of distribution in Han Wistar rat. It is filed as ADME, organism-based. Conditions: in vivo, read-out: Vss.
Series [5] in a line: Half life in Han Wistar rat iv. It is filed as ADME, organism-based. The following applies: in vivo.
Series [6] in a line: Oral bioavailability in Han Wistar rat. Type of series: ADME, organism-based. Conditions: in vivo.

In brackets after ≈: the same amount, converted by molar mass.

Broadly, the IC50 is the concentration that gives 50% inhibition. Turning to `CCCC[C@H](NC(=O)O[C@@H]1C(=O)N(C(=O)c2cc3ccccc3s2)CC1(C)C)C(=O)C(=O)N[C@H](C)c1ccccc1`, the IC50 at Cathepsin K came out at 2.8 nM.
Broadly, the clearance is a measure of how efficiently the substance is removed, as volume per time. Read a low clearance as a low capacity for elimination. By solubility is commonly meant how much of the substance goes into solution per volume. A lower solubility goes with little dissolved substance. As a reminder, the Papp is a coefficient for how fast a substance crosses the barrier. A lower Papp goes with slow passage. By half-life is commonly meant the time needed for the level to fall by half in the phase considered. A low value points to fast loss. The term bioavailability denotes the share of a dose that reaches the circulation, judged against a reference dose that is usually intravenous. `CCCC[C@H](NC(=O)O[C@@H]1C(=O)N(C(=O)c2cccnc2)CC1(C)C)C(=O)C(=O)N[C@H](C)c1ccccc1`: in series [1], the clearance was determined as 34 mL/min/kg. For the same molecule, on Cathepsin K, the IC50 amounted to 14 nM. Besides, in series [2], the solubility was 85 µg/mL (≈ 163 µM). In addition, the Papp in series [3] came to 21 ×10⁻⁶ cm/s. In series [4], the Vd was 0.55 L/kg. For the same molecule, in series [5], the half-life stood at 1.57 h. The molecule also came in with a bioavailability in series [6] of 45%.
With `CCCC[C@H](NC(=O)O[C@@H]1C(=O)N(S(=O)(=O)Cc2ccccc2)CC1(C)C)C(=O)C(=O)N[C@H](C)c1ccccc1`, the IC50 on Cathepsin K is 17 nM.
On to `CCCC[C@H](NC(=O)O[C@@H]1C(=O)N(Cc2ccccc2)CC1(C)C)C(=O)C(=O)N[C@H](C)c1ccccc1`, for which, at Cathepsin K, the IC50 was 21 nM.
In series [1], `CCCC[C@H](NC(=O)O[C@@H]1C(=O)N(C(=O)Cc2ccccc2)CC1(C)C)C(=O)C(=O)N[C@H](C)c1ccccc1` gave a clearance of 26 mL/min/kg. Moreover, the half-inhibitory concentration (IC50) at Cathepsin K was found to be 3 nM. This molecule gave a solubility in series [2] of 68 µg/mL (≈ 127 µM). Further, the apparent permeability (Papp) in series [3] came out at 41 ×10⁻⁶ cm/s. Besides, the Vd in series [4] is 1.5 L/kg. In series [5], this molecule showed a half-life of 1.05 h. In series [6], this molecule displayed a bioavailability of 29%.
On to `CCCC[C@H](NC(=O)O[C@@H]1C(=O)N(C(=O)Oc2ccc3ccccc3c2)CC1(C)C)C(=O)C(=O)N[C@H](C)c1ccccc1`, for which the IC50 on Cathepsin K turned out to be 58 nM.
With `CCCC[C@H](NC(=O)O[C@@H]1C(=O)N(C(=O)Oc2ccc(-c3ccccc3)cc2)CC1(C)C)C(=O)C(=O)N[C@H](C)c1ccccc1`, the IC50 at Cathepsin K is 5 nM.
On to `CCCC[C@H](NC(=O)O[C@@H]1C(=O)N(C(=O)Nc2ccc(C(F)(F)F)cc2)CC1(C)C)C(=O)C(=O)Nc1cc[nH]n1`, for which the clearance in series [1] worked out at 77 mL/min/kg. Moreover, at Cathepsin K, the IC50 was 0.42 nM. In series [2], this molecule yielded a solubility of 140 µg/mL (≈ 247 µM). The Papp in series [3] came out at 1.8 ×10⁻⁶ cm/s. In series [4], the Vd came out at 2.6 L/kg. Moreover, the half-life in series [5] came to 1.25 h. In addition, the bioavailability in series [6] is 26%.
For the molecule `CCCC[C@H](NC(=O)O[C@@H]1C(=O)N(C(=O)c2ccc3ccccc3c2)CC1(C)C)C(=O)C(=O)N[C@H](C)c1ccccc1`, the IC50 on Cathepsin K stood at 1.6 nM.
As to `CCCC[C@H](NC(=O)O[C@@H]1C(=O)N(C(=O)c2ccccc2)CC1(C)C)C(=O)C(=O)N[C@H](C)c1ccccc1`, the IC50 on Cathepsin K amounted to 65 nM.
Turning to `CCCC[C@H](NC(=O)O[C@@H]1C(=O)N(C(=O)N2CCOCC2)CC1(C)C)C(=O)C(=O)N[C@H](C)c1ccccc1`, the IC50 on Cathepsin K stood at 16 nM.
On the same count and under the same terms, the figure for `CCCC[C@H](NC(=O)O[C@@H]1C(=O)N(C(=O)Nc2ccccc2)CC1(C)C)C(=O)C(=O)N[C@H](C)c1ccccc1` is 4.3 nM.
Consider `CCCC[C@H](NC(=O)O[C@@H]1C(=O)N(C(=O)c2nc3ccccc3s2)CC1(C)C)C(=O)C(=O)Nc1ccn[nH]1`, for which, in series [1], the clearance stood at 65 mL/min/kg. Further, the IC50 at Cathepsin K was 0.81 nM. Also, the concentration in solution in series [2] (solubility) was 160 µg/mL (≈ 296 µM). Also, the Papp in series [3] turned out to be 25 ×10⁻⁶ cm/s. Further, the Vd in series [4] was 2.2 L/kg. Besides, the half-life in series [5] turned out to be 3 h. Moreover, in series [6], the bioavailability was found to be 14%.
For the molecule `CCCC[C@H](NC(=O)O[C@@H]1C(=O)N(C(=O)Oc2ccccc2)CC1(C)C)C(=O)C(=O)N[C@H](C)c1ccccc1`, at Cathepsin K, the IC50 stood at 29 nM.
Turning to `CCCC[C@H](NC(=O)O[C@@H]1C(=O)N(C(=O)Nc2ccc(C(F)(F)F)cc2)CC1(C)C)C(=O)C(=O)N[C@H](C)c1ccccc1`, the IC50 at Cathepsin K was 2.1 nM.
As for `CCCC[C@H](NC(=O)O[C@@H]1C(=O)N(C(=O)NCCc2ccccc2)CC1(C)C)C(=O)C(=O)N[C@H](C)c1ccccc1`, the IC50 on Cathepsin K turned out to be 6.6 nM.
As for `CCCC[C@H](NC(=O)O[C@@H]1C(=O)N(C(=O)c2ccc(-c3ccccc3)cc2)CC1(C)C)C(=O)C(=O)N[C@H](C)c1ccccc1`, the IC50 on Cathepsin K amounted to 6.9 nM.
Molecule `CCCC[C@H](NC(=O)O[C@@H]1C(=O)N(C(=O)Nc2c(C)noc2C)CC1(C)C)C(=O)C(=O)N[C@H](C)c1ccccc1` had a clearance in series [1] of 83 mL/min/kg. Besides, at Cathepsin K, the IC50 came out at 15 nM. This molecule also returned a solubility in series [2] of 320 µg/mL (≈ 576 µM). This molecule came in with a Papp in series [3] of 1.2 ×10⁻⁶ cm/s. The Vd in series [4] stood at 1.4 L/kg. Besides, in series [5], the half-life was 0.583 h. The bioavailability in series [6] is 8.8%.
With `CCCC[C@H](NC(=O)O[C@@H]1C(=O)N(C(=O)CCCc2ccccc2)CC1(C)C)C(=O)C(=O)N[C@H](C)c1ccccc1`, the IC50 at Cathepsin K worked out at 27 nM.
For `CCCC[C@H](NC(=O)O[C@@H]1C(=O)N(C(=O)NCc2ccccc2)CC1(C)C)C(=O)C(=O)N[C@H](C)c1ccccc1`, the clearance in series [1] was determined as 32 mL/min/kg. Moreover, at Cathepsin K, the IC50 was 3.8 nM. Moreover, the solubility in series [2] is 53 µg/mL (≈ 96.2 µM). In addition, the Papp in series [3] came out at 21 ×10⁻⁶ cm/s. The Vd in series [4] came out at 1.4 L/kg. For the same molecule, the half-life in series [5] came out at 1.02 h. This molecule also had a bioavailability in series [6] of 21%.
In the case of `CCCC[C@H](NC(=O)O[C@@H]1C(=O)N(C(=O)c2nnc(C(F)(F)F)s2)CC1(C)C)C(=O)C(=O)Nc1cc[nH]n1`, the clearance in series [1] was 79 mL/min/kg. The IC50 at Cathepsin K was 1 nM. In series [3], this molecule gave a Papp of 12 ×10⁻⁶ cm/s. For the same molecule, in series [4], the Vd was 3.3 L/kg. The molecule also displayed a half-life in series [5] of 1.35 h. Also, the bioavailability in series [6] came to 13%.
`CCCC[C@H](NC(=O)O[C@@H]1C(=O)N(C(=O)OCc2ccccc2)CC1(C)C)C(=O)C(=O)N[C@H](C)c1ccccc1`: at Cathepsin K, the IC50 came out at 24 nM.
In series [1], `CCCC[C@H](NC(=O)O[C@@H]1C(=O)N(C(=O)c2ccno2)CC1(C)C)C(=O)C(=O)N[C@H](C)c1ccccc1` had a clearance of 18 mL/min/kg. Further, on Cathepsin K, the IC50 stood at 8.9 nM. The molecule also gave a solubility in series [2] of 68 µg/mL (≈ 133 µM). In series [3], this molecule gave a Papp of 48 ×10⁻⁶ cm/s. Further, the Vd in series [4] came out at 0.5 L/kg. This molecule gave a half-life in series [5] of 0.6 h. For the same molecule, in series [6], the bioavailability amounted to 8.6%.
`CCCC[C@H](NC(=O)O[C@@H]1C(=O)N(C(=O)OCCc2ccccc2)CC1(C)C)C(=O)C(=O)N[C@H](C)c1ccccc1`: on Cathepsin K, the IC50 is 32 nM.
Same read-out and setting: the figure for `CCCC[C@H](NC(=O)O[C@@H]1C(=O)N(C(=O)c2ccc3[nH]ccc3c2)CC1(C)C)C(=O)C(=O)N[C@H](C)c1ccccc1` is 1.7 nM; for `CCCC[C@H](NC(=O)O[C@@H]1C(=O)N(C(=O)OCc2ccc(-c3ccccc3)cc2)CC1(C)C)C(=O)C(=O)N[C@H](C)c1ccccc1` it is 2.1 nM.
Turning to `CCCC[C@H](NC(=O)O[C@@H]1C(=O)N(S(=O)(=O)c2ccccc2)CC1(C)C)C(=O)C(=O)N[C@H](C)c1ccccc1`, the clearance in series [1] was determined as 27 mL/min/kg. Further, the IC50 at Cathepsin K amounted to 8.3 nM. Moreover, the Vd in series [4] turned out to be 2.1 L/kg. This molecule registered a half-life in series [5] of 2.5 h. The bioavailability in series [6] was found to be 25%.

These data come from ChEMBL document CHEMBL1146061, “Novel, potent P2-P3 pyrrolidine derivatives of ketoamide-based cathepsin K inhibitors” (Bioorg Med Chem Lett, 2006).
